Values of other authors as cited in paper PMC10766353, “Oral FXIIa inhibitor KV998086 suppresses FXIIa and single chain FXII mediated kallikrein kinin system activation” (Frontiers in Pharmacology, 2023).
Like-named read-outs stand apart in the source and are kept apart here.

Experiments:
[1] = tested on: HAE attacks; parameters: method as in Craig et al., 2023; conditions: six-month study, ref Craig et al., 2023
[2] = tested on: HAE attacks; parameters: method as in Banerji et al., 2018; conditions: 26-week phase 3 study; ref Banerji et al., 2018

Row | Molecule | HAE attack reduction ([1]; monthly administration) | patients attack free [1] | HAE attack reduction [2] | patients attack free [2]
1 | garadacimab: a monoclonal antibody that inhibits FXIIa | 87% | 62% |  | 
2 | lanadelumab: monoclonal antibody PKa inhibitor (antibody, chains of the INN, looked up, V domains shown) VH: EVQLLESGGGLVQPGGSLRLSCAASGFTFSHYIMMWVRQAPGKGLEWVSGIYSSGGITVYADSVKGRFTISRDNSKNTLYLQMNSLRAEDTAVYYCAYRRIGVPRRDEFDIWGQGTMVTVSS VL: DIQMTQSPSTLSASVGDRVTITCRASQSISSWLAWYQQKPGKAPKLLIYKASTLESGVPSRFSGSGSGTEFTLTISSLQPDDFATYYCQQYNTYWTFGQGTKVEIK |  |  | 87% | 44%
